In ChEMBL document CHEMBL3868638, “Potential Treatment of Cognitive Impairment in Schizophrenia by Phosphodiesterase 2 (PDE2) Inhibitors” (ACS Med Chem Lett, 2017):
Activity calls are given as the source filed them. The calls are words filed in the database; no cut-off is given here.

organism: Homo sapiens; test: (§1) Inhibition of human PDE2 using FAM-labeled cAMP as substrate after 60 mins in presence of cGMP by florescence polarization assay

| inhibition | SMILES |
| --- | --- |
| Active | COc1ccc(Cc2nc(O)c3c(C)nc([C@@H](CCCc4ccccc4)[C@@H](C)O)n3n2)cc1OC |

target: not listed separately; test: as §1

| SMILES | Ki [nM] |
| --- | --- |
| CC(C)[C@@H](NC(=O)c1cc(=O)[nH]c(N(C)C)n1)c1ccc(SC(F)(F)F)cc1 | 0.37 to 5.1 |
| CC[C@@H](NC(=O)c1cc(=O)[nH]c(N(C)C)n1)c1ccc(SC(F)(F)F)cc1 | 0.69 to 5.05 |

The next lines start with the values.

| Ki [nM] | SMILES |
| --- | --- |
| 0.32 to 0.82 | C[C@@H](NC(=O)c1cc(=O)[nH]c(N(C)C)n1)c1ccc(SC(F)(F)F)cc1 |
| 0.9 to 0.96 | CN(C)c1nc(C(=O)NC2(c3ccc(C(F)(F)F)c(F)c3)CC2)cc(=O)[nH]1 |
| 0.12 | CN(C)c1nc(C(=O)N[C@@H](c2ccc(OC(F)(F)F)c(F)c2)C(C)(C)O)cc(=O)[nH]1 |
| 1.6 | C[C@@H](NC(=O)c1cc(=O)[nH]c(N(C)C)n1)c1ccc(OC(F)(F)F)c(Cl)c1 |
